Experimental data: PubChem BioAssay AID2060512 (Molecular Pharmacology Branch, DTP, NCI, 2025)

System: 186277-243-T-J2-PDC complex spheroid viability
Experiment: Anticancer human tumor 186277-243-T-J2-PDC patient-derived colon adenocarcinoma cell line growth inhibition [GQUAD]
Details: for IC50: curve of first compound; for viability, T/C: stronger effect = lower value
Summary of the method: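 Viability of tumor cells grown as complex spheroids with endothelial and stromal cells, exposed to drug combinations. Top concentration at or near clinical Cmax (else 10 microM), diluted in half-log increments.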

[1] = second compound 0.0316 µM, first compound 0.0316 µM
[2] = second compound 0.0316 µM, first compound 0.1 µM
[3] = second compound 0.0316 µM, first compound 0.316 µM
[4] = second compound 0.0316 µM, first compound 1 µM
[5] = second compound 0.0316 µM, first compound 3.16 µM
[6] = second compound 0.0316 µM, first compound 10 µM
[7] = second compound 0.1 µM, first compound 0.0316 µM
[8] = second compound 0.1 µM, first compound 0.1 µM
[9] = second compound 0.1 µM, first compound 0.316 µM
[10] = second compound 0.1 µM, first compound 1 µM
[11] = second compound 0.1 µM, first compound 3.16 µM
[12] = second compound 0.1 µM, first compound 10 µM
[13] = second compound 0.316 µM, first compound 0.0316 µM
[14] = second compound 0.316 µM, first compound 0.1 µM
[15] = second compound 0.316 µM, first compound 0.316 µM
[16] = second compound 0.316 µM, first compound 1 µM
[17] = second compound 0.316 µM, first compound 3.16 µM
[18] = second compound 0.316 µM, first compound 10 µM
[19] = second compound 1 µM, first compound 0.0316 µM
[20] = second compound 1 µM, first compound 0.1 µM
[21] = second compound 1 µM, first compound 0.316 µM
[22] = second compound 1 µM, first compound 1 µM
[23] = second compound 1 µM, first compound 3.16 µM
[24] = second compound 1 µM, first compound 10 µM
[25] = second compound 3.16 µM, first compound 0.0316 µM
[26] = second compound 3.16 µM, first compound 0.1 µM
[27] = second compound 3.16 µM, first compound 0.316 µM
[28] = second compound 3.16 µM, first compound 1 µM
[29] = second compound 3.16 µM, first compound 3.16 µM
[30] = second compound 3.16 µM, first compound 10 µM
[31] = second compound 10 µM, first compound 0.0316 µM
[32] = second compound 10 µM, first compound 0.1 µM
[33] = second compound 10 µM, first compound 0.316 µM
[34] = second compound 10 µM, first compound 1 µM
[35] = second compound 10 µM, first compound 3.16 µM
[36] = second compound 10 µM, first compound 10 µM
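Wherever viability, T/C is given: 100% = DMSO vehicle control viability.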

CC(=O)O[C@H]1C(=O)[C@@]2(C)[C@H]([C@H](OC(=O)c3ccccc3)[C@]3(O)C[C@H](OC(=O)[C@H](O)[C@@H](NC(=O)c4ccccc4)c4ccccc4)C(C)=C1C3(C)C)[C@]1(OC(C)=O)CO[C@@H]1C[C@@H]2O + Cc1[nH]c2ccc(F)cc2c1-c1nc2c3cccnc3c3ncccc3c2[nH]1
IC50 (second compound 0.0316 µM): < 31.6 nM | IC50 (second compound 0.1 µM): < 31.6 nM | IC50 (second compound 0.316 µM): < 31.6 nM | IC50 (second compound 1 µM): < 31.6 nM | IC50 (second compound 3.16 µM): < 31.6 nM | IC50 (second compound 10 µM): < 31.6 nM | viability, T/C [1]: 15.7% | viability, T/C [2]: 4.95% | viability, T/C [3]: 6.22% | viability, T/C [4]: 4.92% | viability, T/C [5]: 4.75% | viability, T/C [6]: 4.49% | viability, T/C [7]: 15% | viability, T/C [8]: 5.55% | viability, T/C [9]: 4.93% | viability, T/C [10]: 4.7% | viability, T/C [11]: 4.6% | viability, T/C [12]: 4.6% | viability, T/C [13]: 15.1% | viability, T/C [14]: 5.62% | viability, T/C [15]: 4.72% | viability, T/C [16]: 4.93% | viability, T/C [17]: 5.02% | viability, T/C [18]: 4.65% | viability, T/C [19]: 12% | viability, T/C [20]: 5.43% | viability, T/C [21]: 4.8% | viability, T/C [22]: 4.59% | viability, T/C [23]: 4.91% | viability, T/C [24]: 4.25% | viability, T/C [25]: 11.6% | viability, T/C [26]: 5.28% | viability, T/C [27]: 4.81% | viability, T/C [28]: 3.9% | viability, T/C [29]: 5.02% | viability, T/C [30]: 4.07% | viability, T/C [31]: 12.4% | viability, T/C [32]: 5.2% | viability, T/C [33]: 3.75% | viability, T/C [34]: 3.85% | viability, T/C [35]: 4.46% | viability, T/C [36]: 3.46%

C=CCn1c(=O)c2cnc(Nc3ccc(N4CCN(C)CC4)cc3)nc2n1-c1cccc(C(C)(C)O)n1 + Cc1[nH]c2ccc(F)cc2c1-c1nc2c3cccnc3c3ncccc3c2[nH]1
IC50 (second compound 0.0316 µM): 174 nM | IC50 (second compound 0.1 µM): 180 nM | IC50 (second compound 0.316 µM): 179 nM | IC50 (second compound 1 µM): 179 nM | IC50 (second compound 3.16 µM): 142 nM | IC50 (second compound 10 µM): 138 nM | viability, T/C [1]: 97.9% | viability, T/C [2]: 83.8% | viability, T/C [3]: 13.2% | viability, T/C [4]: 7.62% | viability, T/C [5]: 8.21% | viability, T/C [6]: 8.87% | viability, T/C [7]: 112% | viability, T/C [8]: 87.8% | viability, T/C [9]: 13.6% | viability, T/C [10]: 9.07% | viability, T/C [11]: 9.3% | viability, T/C [12]: 9.89% | viability, T/C [13]: 108% | viability, T/C [14]: 88% | viability, T/C [15]: 12.7% | viability, T/C [16]: 8.61% | viability, T/C [17]: 9.09% | viability, T/C [18]: 11.5% | viability, T/C [19]: 97.1% | viability, T/C [20]: 87.4% | viability, T/C [21]: 13.7% | viability, T/C [22]: 8.91% | viability, T/C [23]: 9.37% | viability, T/C [24]: 10.9% | viability, T/C [25]: 96.4% | viability, T/C [26]: 67.2% | viability, T/C [27]: 11.1% | viability, T/C [28]: 8.17% | viability, T/C [29]: 8.58% | viability, T/C [30]: 10.8% | viability, T/C [31]: 89.9% | viability, T/C [32]: 64.6% | viability, T/C [33]: 12.9% | viability, T/C [34]: 8.07% | viability, T/C [35]: 8.03% | viability, T/C [36]: 10.3%

COc1cccc2c1C(=O)c1c(O)c3c(c(O)c1C2=O)CC(O)(C(=O)CO)CC3OC1CC(N)C(O)C(C)O1 (stereo not drawn) + Cc1[nH]c2ccc(F)cc2c1-c1nc2c3cccnc3c3ncccc3c2[nH]1
IC50 (second compound 0.0316 µM): 696 nM | IC50 (second compound 0.1 µM): 511 nM | IC50 (second compound 0.316 µM): 686 nM | IC50 (second compound 1 µM): 674 nM | IC50 (second compound 3.16 µM): 623 nM | IC50 (second compound 10 µM): 667 nM | viability, T/C [1]: 104% | viability, T/C [2]: 99.2% | viability, T/C [3]: 95.9% | viability, T/C [4]: 28.9% | viability, T/C [5]: 5.65% | viability, T/C [6]: 0.19% | viability, T/C [7]: 117% | viability, T/C [8]: 88.9% | viability, T/C [9]: 70.5% | viability, T/C [10]: 29.5% | viability, T/C [11]: 0.54% | viability, T/C [12]: 0.13% | viability, T/C [13]: 96.1% | viability, T/C [14]: 116% | viability, T/C [15]: 81.4% | viability, T/C [16]: 34.9% | viability, T/C [17]: 0.6% | viability, T/C [18]: 0.26% | viability, T/C [19]: 104% | viability, T/C [20]: 96.3% | viability, T/C [21]: 85.5% | viability, T/C [22]: 32% | viability, T/C [23]: 0.77% | viability, T/C [24]: 0.15% | viability, T/C [25]: 84.7% | viability, T/C [26]: 92.1% | viability, T/C [27]: 75% | viability, T/C [28]: 32.4% | viability, T/C [29]: 1.37% | viability, T/C [30]: 0.86% | viability, T/C [31]: 90.4% | viability, T/C [32]: 98% | viability, T/C [33]: 81.5% | viability, T/C [34]: 32.8% | viability, T/C [35]: 1.17% | viability, T/C [36]: 0.68%

Cc1[nH]c2ccccc2c1CCNCc1ccc(/C=C/C(=O)NO)cc1 + Cc1cnc(CNC(=O)c2c(=O)c3ccc(N4CCCN(C)CC4)nc3n3c2sc2ccccc23)cn1
IC50 (second compound 0.0316 µM): 30.9 nM | IC50 (second compound 0.1 µM): 17.9 nM | IC50 (second compound 0.316 µM): 10.2 nM | IC50 (second compound 1 µM): < 0.999 nM | IC50 (second compound 3.16 µM): < 0.999 nM | IC50 (second compound 10 µM): < 0.999 nM | viability, T/C (second compound 0.0316 µM, first compound 0.000999 µM): 108% | viability, T/C (second compound 0.0316 µM, first compound 0.00316 µM): 101% | viability, T/C (second compound 0.0316 µM, first compound 0.00999 µM): 110% | viability, T/C [1]: 48.9% | viability, T/C (second compound 0.0316 µM, first compound 0.0999 µM): 13.6% | viability, T/C [3]: 1.14% | viability, T/C (second compound 0.1 µM, first compound 0.000999 µM): 77.5% | viability, T/C (second compound 0.1 µM, first compound 0.00316 µM): 79.7% | viability, T/C (second compound 0.1 µM, first compound 0.00999 µM): 61.4% | viability, T/C [7]: 36.7% | viability, T/C (second compound 0.1 µM, first compound 0.0999 µM): 15.4% | viability, T/C [9]: 0.78% | viability, T/C (second compound 0.316 µM, first compound 0.000999 µM): 58.4% | viability, T/C (second compound 0.316 µM, first compound 0.00316 µM): 52.8% | viability, T/C (second compound 0.316 µM, first compound 0.00999 µM): 49.2% | viability, T/C [13]: 34.9% | viability, T/C (second compound 0.316 µM, first compound 0.0999 µM): 9.31% | viability, T/C [15]: 1.35% | viability, T/C (second compound 1 µM, first compound 0.000999 µM): 40.5% | viability, T/C (second compound 1 µM, first compound 0.00316 µM): 40.9% | viability, T/C (second compound 1 µM, first compound 0.00999 µM): 38.4% | viability, T/C [19]: 20% | viability, T/C (second compound 1 µM, first compound 0.0999 µM): 4.65% | viability, T/C [21]: 0.08% | viability, T/C (second compound 3.16 µM, first compound 0.000999 µM): 35% | viability, T/C (second compound 3.16 µM, first compound 0.00316 µM): 38.6% | viability, T/C (second compound 3.16 µM, first compound 0.00999 µM): 28.3% | viability, T/C [25]: 21.6% | viability, T/C (second compound 3.16 µM, first compound 0.0999 µM): 0.18% | viability, T/C [27]: 0.11% | viability, T/C (second compound 10 µM, first compound 0.000999 µM): 34.7% | viability, T/C (second compound 10 µM, first compound 0.00316 µM): 36.3% | viability, T/C (second compound 10 µM, first compound 0.00999 µM): 28.8% | viability, T/C [31]: 18.9% | viability, T/C (second compound 10 µM, first compound 0.0999 µM): 0.27% | viability, T/C [33]: 0.24%
